Experimental data from the NIST ThermoML archive (doi:10.1021/je800998u).

Test: molar heat capacity at constant pressure
Conditions: 101.33 kPa, Crystal 2, Small (less than 1 g) adiabatic calorimetry

CC(C)COCC(C)C [diisobutyl ether]
Conditions	molar heat capacity at constant pressure [J/K/mol]
8.82 K	1.718
9.09 K	1.873
9.35 K	2.044
9.61 K	2.275
9.86 K	2.429
10 K	2.519
10.18 K	2.65
10.58 K	2.937
10.96 K	3.313
11.34 K	3.685
11.75 K	4.078
12.13 K	4.434
12.5 K	4.803
12.88 K	5.199
13.25 K	5.584
13.61 K	6.04
13.98 K	6.505
14.34 K	6.941
14.71 K	7.42
15 K	7.709
15.07 K	7.816
15.44 K	8.198
15.8 K	8.608
16.15 K	9.109
16.51 K	9.706
16.86 K	10.12
17.21 K	10.68
17.57 K	11.14
17.92 K	11.79
18.28 K	12.13
18.63 K	12.7
18.98 K	13.24
19.33 K	13.71
19.68 K	14.26
20 K	14.73
20.03 K	14.7
20.68 K	15.81
21.44 K	17.01
22.21 K	18.14
22.97 K	19.36
23.73 K	20.47
24.49 K	21.77
25 K	22.61
25.25 K	22.85
26 K	24.23
26.76 K	25.53
27.53 K	26.72
28.29 K	27.81
29.04 K	29.05
29.8 K	30
30 K	30.39
30.56 K	31.03
31.31 K	32.45
32.07 K	33.45
32.84 K	34.56
33.59 K	35.68
34.35 K	36.74
35 K	37.65
35.1 K	37.87
35.86 K	38.82
36.61 K	39.8
37.36 K	40.72
38.11 K	42.01
38.86 K	43.03
39.62 K	44.08
40 K	44.52
40.37 K	45.1
41.12 K	46.17
41.87 K	47.05
42.62 K	47.91
43.37 K	48.99
44.12 K	49.85
44.88 K	50.69
45 K	51.04
45.63 K	51.79
46.38 K	52.94
47.13 K	53.72
47.88 K	54.52
48.63 K	55.63
49.38 K	56.47
50 K	57.22
50.12 K	57.39
50.87 K	58.27
51.62 K	59.17
52.36 K	60.07
53.11 K	61.06
53.85 K	62.18
54.6 K	63.09
55 K	63.54
55.34 K	63.95
56.09 K	64.95
56.83 K	66.04
57.57 K	67.47
59.06 K	68.36
59.81 K	69.16
60 K	69.69
60.55 K	69.92
61.29 K	71.03
62.03 K	72.13
62.77 K	72.85
63.51 K	73.59
64.25 K	74.59
64.99 K	75.44
65 K	75.34
65.73 K	76.13
66.47 K	76.73
67.21 K	77.8
67.95 K	78.53
68.69 K	79.4
69.43 K	79.64
70 K	80.28
70.16 K	80.5
71.06 K	80.99
72.11 K	81.81
73.16 K	83.2
74.21 K	84.22
75 K	84.76
75.26 K	84.92
76.31 K	85.85
77.36 K	86.85
77.99 K	88.21
78.41 K	87.75
79.13 K	89.1
79.45 K	89.04
80 K	89.65
80.18 K	90.02
80.5 K	89.99
81.22 K	91.36
81.55 K	90.95
82.26 K	92.28
82.59 K	92.15
83.3 K	92.88
83.63 K	93.23
84.34 K	93.83
84.68 K	93.86
85 K	94.92
85.37 K	94.92
85.72 K	96.14
86.41 K	96.9
87.44 K	97.86
88.48 K	98.97
89.51 K	100
90 K	100.3
90.55 K	101.18
91.58 K	101.87
92.61 K	102.82
93.65 K	104.36
94.68 K	104.93
95 K	105.3
95.71 K	105.7
96.75 K	106.52
97.78 K	107.57
98.81 K	108.62
99.84 K	109.08
100 K	109.7
100.86 K	110.59
101.89 K	111.96
102.92 K	112.24
103.95 K	113.24
104.98 K	114.44
106.01 K	115.08
107.04 K	116.13
108.06 K	116.43
109.09 K	117.54
110 K	118.6
110.11 K	118.56
111.14 K	119.31
112.16 K	120.35
113.18 K	121.34
114.21 K	122.79
115.23 K	123.92
116.25 K	124.47
117.27 K	125.86
118.29 K	126.81
119.32 K	127.51
120 K	128
120.34 K	128.32
121.36 K	129.04
122.38 K	130.15
123.4 K	131.15
124.42 K	131.86
125.44 K	132.59
126.46 K	133.8
127.47 K	134.67
128.49 K	135.82
129.51 K	137.05
130 K	137.1
130.53 K	137.63
131.54 K	138.57
132.56 K	139.45
133.57 K	140.23
134.59 K	141.56
135.6 K	142.61
136.62 K	143.17
137.63 K	144.11
138.64 K	145.82
139.66 K	146.49
140 K	147
